Measurements taken from patent US20200017496A1 (priority 2017, published 2020).

Columns and labels:
Format in all cases: cell-based
[1] = tested on: Proteus mirabilis (PMI) isolates; assay: microbe, parasite or virus in culture; details: AF1 @ 4 μg/mL
Method in brief: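 Log-phase bacteria at a final 5·10^5 CFU/mL in cation-adjusted Mueller-Hinton broth were incubated 16-20 h at 35° C in ambient air with compound alone or with an antibacterial. MIC was the lowest concentration preventing visible growth; combination MIC of the antibacterial was read at each compound concentration.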

[2] = tested on: Enterobacter aerogenes (EAE) isolates; assay: MIC of compounds alone and combined with antibacterials, broth microdilution (CLSI); details: AF1 @ 4 μg/mL
Method: (§1) Method 2: MIC of Compounds Alone and Combined with Antibacterials Against Bacterial Isolates.
(§2) Compounds of the present invention were assessed against genotyped bacterial strains (Table 3, 4) alone or in combination with an antibacterial (Table 2). […] Log phase bacterial suspensions were adjusted to a final density of 5·10^5 CFU/mL in cation-adjusted Mueller-Hinton broth (ca-MHB; Becton-Dickinson and Company) and added to each well (98 μL). Microplates were incubated for 16-20 h at 35° C. in ambient air. The MIC of the compounds was defined as the lowest concentration of said compounds that prevented bacterial growth as read by visual inspection. The MIC of ATB at each compound concentration was defined as the lowest concentration of ATB that prevented bacterial growth as read by visual inspection.

[3] = tested on: Enterobacter cloacae (ECL) isolates; assay: as above
Method: as §1, §2

[4] = tested on: Escherichia coli (ECO) isolates; assay: as above; details: AF1 @ 4 μg/mL
Method: as §1, §2

## COCC1=C(C(=O)O)N2C(=O)[C@@H](NC(=O)/C(=N\OC)c3csc(N)n3)[C@H]2SC1 [POD, Cefpodoxime]
[1]; PMI UFR82
  MIC ATB in combination: 1 mg/L
[1]; PMI UFR120
  MIC ATB in combination: <=0.25 μg/mL
[1]; PMI UFR121
  MIC ATB in combination: <=0.25 μg/mL
[1]; PMI UFR122
  MIC ATB in combination: <=0.25 μg/mL
[1]; PMI UFR123
  MIC ATB in combination: <=0.25 μg/mL
[1]; PMI UFR124
  MIC ATB in combination: <=0.25 μg/mL
[1]; PMI UFR125
  MIC ATB in combination: <=0.25 μg/mL
[1]; PMI UFR126
  MIC ATB in combination: <=0.25 μg/mL
[1]; PMI UFR127
  MIC ATB in combination: <=0.25 μg/mL
[1]; PMI UFR129
  MIC ATB in combination: <=0.25 μg/mL
[1]; PMI UFR130
  MIC ATB in combination: 0.5 mg/L
[1]; PMI UFR237
  MIC ATB in combination: <=0.25 μg/mL
[2]; EAE 49469
  MIC ATB in combination: 8 mg/L
[2]; EAE 200261
  MIC ATB in combination: 4 mg/L
[2]; EAE UFR199
  MIC ATB in combination: 1 mg/L
[2]; EAE UFR201
  MIC ATB in combination: <=0.25 μg/mL
[2]; EAE UFR202
  MIC ATB in combination: 2 mg/L
[2]; EAE UFR213
  MIC ATB in combination: 1 mg/L
[3]; ECL 2185D, AF1 @ 4 μg/mL
  MIC ATB in combination: >128 mg/L
[3]; ECL 190310, AF1 @ 4 μg/mL
  MIC ATB in combination: 64 mg/L
[3]; ECL 190408, AF1 @ 4 μg/mL
  MIC ATB in combination: <=0.25 μg/mL
[3]; ECL 200138, AF1 @ 4 μg/mL
  MIC ATB in combination: 32 mg/L
[3]; ECL 200322, AF1 @ 4 μg/mL
  MIC ATB in combination: 1 mg/L
[3]; ECL 260033, AF1 @ 4 μg/mL
  MIC ATB in combination: 128 mg/L
[3]; ECL 260253, AF1 @ 4 μg/mL
  MIC ATB in combination: 8 mg/L
[3]; ECL 260323, AF1 @ 4 μg/mL
  MIC ATB in combination: 32 mg/L
[3]; ECL 260508, AF1 @ 4 μg/mL
  MIC ATB in combination: 1 mg/L
[3]; ECL NEM146383, AF1 @ 4 μg/mL
  MIC ATB in combination: 16 mg/L
[3]; ECL P99, AF1 @ 4 μg/mL
  MIC ATB in combination: 16 mg/L
[3]; ECL UFR12, AF1 @ 4 μg/mL
  MIC ATB in combination: 1 mg/L
[3]; ECL UFR13, AF1 @ 4 μg/mL
  MIC ATB in combination: 8 mg/L
[3]; ECL UFR14, AF1 @ 4 μg/mL
  MIC ATB in combination: 8 mg/L
[3]; ECL UFR60, AF1 @ 4 μg/mL
  MIC ATB in combination: 1 mg/L
[3]; ECL UFR70, AF1 @ 4 μg/mL
  MIC ATB in combination: 8 mg/L
[3]; ECL UFR84, AF1 @ 4 μg/mL
  MIC ATB in combination: 32 mg/L
[3]; ECL UFR85, AF1 @ 4 μg/mL
  MIC ATB in combination: 4 mg/L
[3]; ECL UFR194, AF1 @ 4 μg/mL
  MIC ATB in combination: 1 mg/L
[3]; ECL UFR200, AF1 @ 4 μg/mL
  MIC ATB in combination: 1 mg/L
[3]; strain ECL UFR195, antibacterial combined with AF1 @ 4 μg/mL
  MIC ATB in combination: 1 mg/L
[3]; strain ECL UFR196, antibacterial combined with AF1 @ 4 μg/mL
  MIC ATB in combination: 2 mg/L
[3]; strain ECL UFR197, antibacterial combined with AF1 @ 4 μg/mL
  MIC ATB in combination: 8 mg/L
[3]; strain ECL UFR198, antibacterial combined with AF1 @ 4 μg/mL
  MIC ATB in combination: 8 mg/L
[4]; ECO 4133
  MIC ATB in combination: <=0.25 μg/mL
[4]; ECO 5302
  MIC ATB in combination: <=0.25 μg/mL
[4]; ECO 131119
  MIC ATB in combination: <=0.25 μg/mL
[4]; ECO 180070
  MIC ATB in combination: <=0.25 μg/mL
[4]; ECO 190314
  MIC ATB in combination: <=0.25 μg/mL
[4]; ECO 190317
  MIC ATB in combination: <=0.25 μg/mL
[4]; ECO 190457
  MIC ATB in combination: <=0.25 μg/mL
[4]; ECO 190549
  MIC ATB in combination: <=0.25 μg/mL
[4]; ECO 200159
  MIC ATB in combination: <=0.25 μg/mL
[4]; ECO 200259
  MIC ATB in combination: <=0.25 μg/mL
[4]; ECO 200344
  MIC ATB in combination: <=0.25 μg/mL
[4]; ECO 260096
  MIC ATB in combination: <=0.25 μg/mL
[4]; ECO 260304
  MIC ATB in combination: <=0.25 μg/mL
[4]; ECO 260508
  MIC ATB in combination: <=0.25 μg/mL
[4]; ECO RGN238
  MIC ATB in combination: <=0.25 μg/mL
[4]; ECO UFR15
  MIC ATB in combination: <=0.25 μg/mL
[4]; ECO UFR16
  MIC ATB in combination: 1 mg/L
[4]; ECO UFR17
  MIC ATB in combination: >128 mg/L
[4]; ECO UFR18
  MIC ATB in combination: 8 mg/L
[4]; ECO UFR19
  MIC ATB in combination: 4 mg/L
[4]; ECO UFR20
  MIC ATB in combination: 4 mg/L
[4]; ECO UFR61O
  MIC ATB in combination: 0.5 mg/L
[4]; ECO UFR62
  MIC ATB in combination: 0.5 mg/L
[4]; ECO UFR74
  MIC ATB in combination: 2 mg/L
[4]; ECO UFR86
  MIC ATB in combination: 1 mg/L
[4]; ECO UFR174
  MIC ATB in combination: <=0.25 μg/mL
[4]; ECO UFR175
  MIC ATB in combination: 1 mg/L
[4]; ECO UFR176
  MIC ATB in combination: <=0.25 μg/mL
[4]; ECO UFR184
  MIC ATB in combination: 4 mg/L
[4]; ECO UFR185
  MIC ATB in combination: 32 mg/L
[4]; ECO UFR186
  MIC ATB in combination: 1 mg/L
[4]; ECO UFR187
  MIC ATB in combination: 0.5 mg/L
[4]; ECO UFR189
  MIC ATB in combination: <=0.25 μg/mL
[4]; ECO UFR190
  MIC ATB in combination: <=0.25 μg/mL
[4]; ECO UFR191
  MIC ATB in combination: <=0.25 μg/mL
[4]; ECO UFR207
  MIC ATB in combination: <=0.25 μg/mL
[4]; ECO UFR208
  MIC ATB in combination: 64 mg/L
[4]; ECO UFR209
  MIC ATB in combination: <=0.25 μg/mL
[4]; ECO UFR210
  MIC ATB in combination: <=0.25 μg/mL
[4]; ECO UFR211
  MIC ATB in combination: <=0.25 μg/mL
[4]; ECO UFR212
  MIC ATB in combination: 32 mg/L
[4]; ECO UFR218
  MIC ATB in combination: <=0.25 μg/mL
